Laboratory results published in the SangsterLogP compilation.

Assays:
[1] = method code SF-AS, from DOI: 10.1016/s0021-9673(00)94589-8, PMID: 3356765

| Structure (SMILES) | logP | logP [1] |
| --- | --- | --- |
| COC(=O)Nc1ccccc1I | 2.36 |  |
| COC(=O)Nc1cccc([N+](=O)[O-])c1 |  | 1.95 |
| CCOc1ccc(NC(=O)OCC(C)C)cc1OCC | 3.33 |  |
| CCOc1ccc(NC(=O)OCc2ccccc2)cc1OCC | 3.32 |  |
| COC(=O)Nc1ccccc1Cl | 2.19 |  |
| COC(=O)Nc1cccc(C#N)c1 |  | 1.77 |
| CCOc1ccc(NC(=O)OC2CCCC2)cc1OCC | 3.41 |  |
| C=CCOC(=O)Nc1ccc(OCC)c(OCC)c1 | 2.74 |  |
| CCOc1ccc(NC(=O)OC(CBr)CBr)cc1OCC | 3.39 |  |
| CCOc1ccc(NC(=O)OCCC#N)cc1OCC |  | 2.13 |
| COC(=O)Nc1ccccc1C(F)(F)F |  | 2.09 |
| CCCOC(=O)Nc1ccc(OCC)c(OCC)c1 | 2.97 |  |
| COC(=O)Nc1ccccc1C |  | 1.69 |
| COC(=O)Nc1ccccc1F |  | 1.66 |
| CCOc1ccc(NC(=O)OC)cc1OCC | 2.2 |  |
| COC(=O)Nc1cccc(C(F)(F)F)c1 |  | 2.74 |
| CCOC(=O)Nc1ccc(OCC)c(OCC)c1 | 2.58 |  |
| CCOc1ccccc1NC(=O)OC |  | 2.4 |
| CCOc1ccc(NC(=O)OC(C)C)cc1OCC |  | 2.82 |
| C#CCOC(=O)Nc1ccc(OCC)c(OCC)c1 |  | 2.68 |
| COC(=O)Nc1ccccc1[N+](=O)[O-] |  | 2.07 |
| CCCCOC(=O)Nc1ccc(OCC)c(OCC)c1 | 3.35 |  |
| CCOc1ccc(NC(=O)OCCOC)cc1OCC | 2.22 |  |
| COC(=O)Nc1ccccc1Br |  | 2.25 |

Next, values leading:

| logP | logP [1] | Structure (SMILES) |
| --- | --- | --- |
| 1.77 |  | COC(=O)Nc1ccc(OC)cc1 |
|  | 1.92 | COC(=O)Nc1cccc(OC)c1 |
|  | 2.27 | COC(=O)Nc1ccc(C)cc1 |
| 1.67 |  | COC(=O)Nc1ccc(C#N)cc1 |
| 2.59 |  | COC(=O)Nc1cccc(Cl)c1 |
| 2.52 |  | COC(=O)Nc1ccc(Cl)cc1 |
| 2.88 |  | COC(=O)Nc1cccc(I)c1 |
| 2.02 |  | COC(=O)Nc1ccc(F)cc1 |
|  | 1.63 | COC(=O)Nc1cccc(C(C)=O)c1 |
|  | 3.68 | CCCCc1ccc(NC(=O)OC)cc1 |
|  | 2.72 | CCc1ccc(NC(=O)OC)cc1 |
|  | 2.11 | CCOc1ccc(NC(=O)OC)cc1 |
| 2.17 |  | COC(=O)Nc1cccc(F)c1 |
| 2.28 |  | CCOc1cccc(NC(=O)OC)c1 |
|  | 2.72 | CCc1cccc(NC(=O)OC)c1 |
| 2.71 |  | COC(=O)Nc1cccc(Br)c1 |
| 1.98 |  | COC(=O)Nc1ccc([N+](=O)[O-])cc1 |
|  | 1.84 | COC(=O)Nc1ccccc1OC |
|  | 2.22 | COC(=O)Nc1cccc(C)c1 |
